Results taken from patent US5162328A, “N-[3-[2-(1H-imidazol-1-yl)ethoxy]phenyl]-4-(2-thienyl)-2-pyrimidinamine and pharmacologically acceptable salts” (American Cyanamid Company, priority 1991, dated 1992).
Where two headings read alike, the source gives them in different places.

Assay: Pharmacokinetics in dogs (plasma concentration by HPLC)
Type: in vivo, dog (beagle)
Conditions: dog, plasma, po, 2 mg/kg/day; for concentration at 0.5 h / concentration at 1 h / concentration at 2 h / concentration at 4 h / AUC(0-t) / Cmax / Tmax / half-life / AUC(0-inf): 2 mg/kg/day PO; for AUC(0-inf): read-out: AUCO- (to infinite time)
Experimental: Since dogs are used in toxicology studies of antiasthma compounds, this species is chosen for pharmacokinetic evaluations. Use of the dog permits the pharmacokinetic comparison of 2 or more compounds in the same test animal, an evaluation which could not be conveniently performed in a smaller species. For each test compound, normal dogs are given a dose of 2.0 mg/kg/day for 5 consecutive days. There is a washout period of 1 month between the study of each of the test compounds in the same four dogs. Each test compound is administered as a solution of 5 mg/ml in either 0.05 or 0.1N HCl which is dispensed into a gelatin capsule immediately prior to dosage.
Heparinized blood samples are obtained from each animal on the first, third and fifth day of dosage at 0.5, 1.0, 2.0, 4.0, 7.0, 12.0 and 24.0 hours after the dose. The samples are centrifuged immediately to obtain plasma which is frozen until analyzed.
Analysis of plasma is performed using High Performance Liquid Chromatography (HPLC). The analytical procedure is essentially identical for each compound. The internal standard used for N-[3-[2-(1H-imidazol-1-yl)ethoxy]phenyl]-4-(2-thienyl)2-pyrimidinamine is 2-chloro-11-(4-methyl-1-piperazinyl)dibenz[b,f][1,4]oxazepine succinate, while for 2-methyl-N^4 -[4-(4-pyridinyl)-2-pyrimidinyl]-1,4-benzenediamine dihydrochloride and N-[4-[2-(diethylamino)ethoxy]phenyl]-4-(4-pyridinyl)-2-pyrimidnamine dihydrochloride the internal standard is 7-ethoxy-coumarin. In a typical procedure, a 0.4 ml volume of acetonitrile containing internal standard is added a 0.2 ml volume of serum. The sample is mixed by vortexing and centrifuged. The clear protein free supernatent fluid is decanted into a clean tube and evaporated to dryness. The dry residue is dissolved in 0.2 ml of HPLC mobile phase and 50 ul of this solution injected. Peaks corresponding to the test compound being measured and to the internal standard compound are quantitated by their absorption of ultraviolet light at 280 nm. Each set of analytical samples is accompanied by the analysis of a group of standard dog plasma samples prepared to contain amounts of the compound being measured which encompasses the concentration range of the samples.
Four normal beagle dogs weighing between 9.2 and 10.2 Kg are used in the study.

concentration at 0.5 h (Dog 1, day 1, 0.5 h): 512 ng/mL
concentration at 1 h (Dog 1, day 1, 1 h): 233 ng/mL
concentration at 2 h (Dog 1, day 1, 2 h): 55 ng/mL
concentration at 4 h (Dog 1, day 1, 4 h): < 30 ng/mL
AUC(0-t) (Dog 1, day 1): 458 ng·h/mL
Cmax (Dog 1, day 1): 512 ng/mL
Tmax (Dog 1, day 1): 30 min
half-life (Dog 1, day 1): 28.2 min
AUC(0-inf) (Dog 1, day 1): 520 ng·h/mL
concentration at 0.5 h (Dog 1, day 3, 0.5 h): 375 ng/mL
concentration at 1 h (Dog 1, day 3, 1 h): 295 ng/mL
concentration at 2 h (Dog 1, day 3, 2 h): 122 ng/mL
concentration at 4 h (Dog 1, day 3, 4 h): < 30 ng/mL
AUC(0-t) (Dog 1, day 3): 470 ng·h/mL
Cmax (Dog 1, day 3): 375 ng/mL
Tmax (Dog 1, day 3): 30 min
half-life (Dog 1, day 3): 54 min
AUC(0-inf) (Dog 1, day 3): 602 ng·h/mL
concentration at 0.5 h (Dog 1, day 5, 0.5 h): 120 ng/mL
concentration at 1 h (Dog 1, day 5, 1 h): 277 ng/mL
concentration at 2 h (Dog 1, day 5, 2 h): 50 ng/mL
concentration at 4 h (Dog 1, day 5, 4 h): < 30 ng/mL
AUC(0-t) (Dog 1, day 5): 293 ng·h/mL
Cmax (Dog 1, day 5): 277 ng/mL
Tmax (Dog 1, day 5): 60 min
AUC(0-inf) (Dog 1, day 5): 349 ng·h/mL
concentration at 0.5 h (Dog 2, day 1, 0.5 h): 438 ng/mL
concentration at 1 h (Dog 2, day 1, 1 h): 210 ng/mL
concentration at 2 h (Dog 2, day 1, 2 h): 58 ng/mL
concentration at 4 h (Dog 2, day 1, 4 h): < 30 ng/mL
AUC(0-t) (Dog 2, day 1): 406 ng·h/mL
Cmax (Dog 2, day 1): 438 ng/mL
Tmax (Dog 2, day 1): 30 min
half-life (Dog 2, day 1): 31.2 min
AUC(0-inf) (Dog 2, day 1): 471 ng·h/mL
concentration at 0.5 h (Dog 2, day 3, 0.5 h): 260 ng/mL
concentration at 1 h (Dog 2, day 3, 1 h): 78 ng/mL
concentration at 2 h (Dog 2, day 3, 2 h): < 30 ng/mL
concentration at 4 h (Dog 2, day 3, 4 h): < 30 ng/mL
AUC(0-t) (Dog 2, day 3): 293 ng·h/mL
Cmax (Dog 2, day 3): 260 ng/mL
Tmax (Dog 2, day 3): 30 min
AUC(0-inf) (Dog 2, day 3): 380 ng·h/mL
concentration at 0.5 h (Dog 2, day 5, 0.5 h): 350 ng/mL
concentration at 1 h (Dog 2, day 5, 1 h): 58 ng/mL
concentration at 2 h (Dog 2, day 5, 2 h): < 30 ng/mL
concentration at 4 h (Dog 2, day 5, 4 h): < 30 ng/mL
AUC(0-t) (Dog 2, day 5): 190 ng·h/mL
Cmax (Dog 2, day 5): 350 ng/mL
Tmax (Dog 2, day 5): 30 min
AUC(0-inf) (Dog 2, day 5): 255 ng·h/mL
concentration at 0.5 h (Dog 3, day 1, 0.5 h): 605 ng/mL
concentration at 1 h (Dog 3, day 1, 1 h): 234 ng/mL
concentration at 2 h (Dog 3, day 1, 2 h): 184 ng/mL
concentration at 4 h (Dog 3, day 1, 4 h): < 30 ng/mL
AUC(0-t) (Dog 3, day 1): 570 ng·h/mL
Cmax (Dog 3, day 1): 605 ng/mL
Tmax (Dog 3, day 1): 30 min
half-life (Dog 3, day 1): 58.2 min
AUC(0-inf) (Dog 3, day 1): 776 ng·h/mL
concentration at 0.5 h (Dog 3, day 3, 0.5 h): 387 ng/mL
concentration at 1 h (Dog 3, day 3, 1 h): 284 ng/mL
concentration at 2 h (Dog 3, day 3, 2 h): 141 ng/mL
concentration at 4 h (Dog 3, day 3, 4 h): < 30 ng/mL
AUC(0-t) (Dog 3, day 3): 477 ng·h/mL
Cmax (Dog 3, day 3): 387 ng/mL
Tmax (Dog 3, day 3): 30 min
half-life (Dog 3, day 3): 61.2 min
AUC(0-inf) (Dog 3, day 3): 635 ng·h/mL
concentration at 0.5 h (Dog 3, day 5, 0.5 h): 105 ng/mL
concentration at 1 h (Dog 3, day 5, 1 h): 289 ng/mL
concentration at 2 h (Dog 3, day 5, 2 h): < 30 ng/mL
concentration at 4 h (Dog 3, day 5, 4 h): < 30 ng/mL
AUC(0-t) (Dog 3, day 5): 125 ng·h/mL
Cmax (Dog 3, day 5): 289 ng/mL
Tmax (Dog 3, day 5): 60 min
AUC(0-inf) (Dog 3, day 5): 449 ng·h/mL
concentration at 0.5 h (Dog 4, day 1, 0.5 h): 482 ng/mL
concentration at 1 h (Dog 4, day 1, 1 h): 206 ng/mL
concentration at 2 h (Dog 4, day 1, 2 h): < 30 ng/mL
concentration at 4 h (Dog 4, day 1, 4 h): < 30 ng/mL
AUC(0-t) (Dog 4, day 1): 399 ng·h/mL
Cmax (Dog 4, day 1): 482 ng/mL
Tmax (Dog 4, day 1): 30 min
AUC(0-inf) (Dog 4, day 1): 630 ng·h/mL
concentration at 0.5 h (Dog 4, day 3, 0.5 h): 283 ng/mL
concentration at 1 h (Dog 4, day 3, 1 h): 44 ng/mL
concentration at 2 h (Dog 4, day 3, 2 h): < 30 ng/mL
concentration at 4 h (Dog 4, day 3, 4 h): < 30 ng/mL
AUC(0-t) (Dog 4, day 3): 175 ng·h/mL
Cmax (Dog 4, day 3): 283 ng/mL
Tmax (Dog 4, day 3): 30 min
AUC(0-inf) (Dog 4, day 3): 224 ng·h/mL
concentration at 0.5 h (Dog 4, day 5, 0.5 h): 420 ng/mL
concentration at 1 h (Dog 4, day 5, 1 h): < 30 ng/mL
concentration at 2 h (Dog 4, day 5, 2 h): < 30 ng/mL
concentration at 4 h (Dog 4, day 5, 4 h): < 30 ng/mL
AUC(0-t) (Dog 4, day 5): 105 ng·h/mL
Cmax (Dog 4, day 5): 420 ng/mL
Tmax (Dog 4, day 5): 30 min
AUC(0-inf) (Dog 4, day 5): 575 ng·h/mL
concentration at 0.5 h (Mean of 4 dogs, day 1, 0.5 h): 509 ng/mL
concentration at 1 h (Mean of 4 dogs, day 1, 1 h): 221 ng/mL
concentration at 2 h (Mean of 4 dogs, day 1, 2 h): 74 ng/mL
concentration at 4 h (Mean of 4 dogs, day 1, 4 h): < 30 ng/mL
concentration at 0.5 h (Mean of 4 dogs, day 3, 0.5 h): 326 ng/mL
concentration at 1 h (Mean of 4 dogs, day 3, 1 h): 175 ng/mL
concentration at 2 h (Mean of 4 dogs, day 3, 2 h): 66 ng/mL
concentration at 4 h (Mean of 4 dogs, day 3, 4 h): < 30 ng/mL
concentration at 0.5 h (Mean of 4 dogs, day 5, 0.5 h): 249 ng/mL
concentration at 1 h (Mean of 4 dogs, day 5, 1 h): 156 ng/mL
concentration at 2 h (Mean of 4 dogs, day 5, 2 h): < 30 ng/mL
concentration at 4 h (Mean of 4 dogs, day 5, 4 h): < 30 ng/mL
AUC(0-t) (Mean, day 1): 458 ng·h/mL
Cmax (Mean, day 1): 509 ng/mL
Tmax (Mean, day 1): 30 min
half-life (Mean, day 1): 39 min
AUC(0-inf) (Mean, day 1): 599 ng·h/mL
AUC(0-t) (Mean, day 3): 354 ng·h/mL
Cmax (Mean, day 3): 326 ng/mL
Tmax (Mean, day 3): 30 min
half-life (Mean, day 3): 57.6 min
AUC(0-inf) (Mean, day 3): 460 ng·h/mL
AUC(0-t) (Mean, day 5): 178 ng·h/mL
Cmax (Mean, day 5): 334 ng/mL
Tmax (Mean, day 5): 45 min
AUC(0-inf) (Mean, day 5): 407 ng·h/mL
k el (derived from mean of half-life values, read-out: elimination constant (converted)): 0.000248 s⁻¹
SMILES: Cc1cc(Nc2nccc(-c3ccncc3)n2)ccc1N.Cl.Cl [Compound 2, 2-methyl-N^4-[4-(4-pyridinyl)-2-pyrimidinyl]-1,4-benzenediamine dihydrochloride, reference compound]
